Assay results published in US8852618B2, “Insecticidal mixture containing gamma-cyhalothrin” (Syngenta Limited, priority 2001, dated 2014).
“And” between values parts separate entries of the source, which are not always exact repeats. Equal values may be shown once. Read-outs that look alike come from different tables or passages of the source.

Tests used:
[1] = tested on: Heliothis virescens; experiment: Sprayed cotton leaf test, mortality of 1st instar larvae after 3 days
Protocol: (§1) For Heliothis and Spodoptera testing cotton leaves were sprayed in a Berkhard Potter Tower, left to dry for 1 hour and then placed on the top of pots containing twenty 1st instar Heliothis virescens/Spodoptera littoralis larvae. These were stored in a test holding room at 25° C. for 3 days and the test species assessed for mortality. For aphid testing Leaf discs were cut from excised Chinese cabbage leaves and placed on agar in test pots. R2 Myzus persicae were transferred from the culture on radish cotyledons and left overnight. The dried cotyledons were removed, leaving approximately 20-25 aphids on each leaf disc. The pots were sprayed in a Berkhard Potter Tower. Once dry, ventilated lids were placed on the top. These were stored in a Weiss Room at 20° C. for 3 days and the test species assessed for mortality. All tests included a Synperonic NP8 control. […] Any increase in the expected amount of mortality may be attributed to synergism. This is calculated in the following way: Expected mortality from mixture=% mortality of mixture partner A+(100%−% mortality of A)*(% mortality of mixture partner B). The results are set out in Tables I-III.

[2] = tested on: Myzus persicae; experiment: Sprayed Chinese cabbage leaf disc aphid test, mortality after 3 days; settings: in Brassica rapa, foliar, 72 h
Protocol: as §1

[3] = tested on: Spodoptera littoralis; experiment: Sprayed cotton leaf test, mortality of 1st instar larvae after 3 days; settings: for Observed % mortality Other ai: 3 days
Protocol: as §1

[4] = read-out: Observed % mortality Other
[5] = Spodoptera littoralis, in Gossypium hirsutum, 72 h, read-out: Observed % mortality Gamma
[6] = read-out: Observed % mortality Gamma

CC1(C)[C@H](C(=O)O[C@H](C#N)c2cccc(Oc3ccccc3)c2)[C@@H]1/C=C(\Cl)C(F)(F)F (racemic) [Lambda-cyhalothrin, lambda-cyhalothrin]
mortality at 0.25 ppm ([1]; Heliothis virescens, in Gossypium hirsutum, 72 h, read-out: Observed % mortality Other ai, other ai alone 0.25 ppm): 46%
mortality at 0.5 ppm ([1]; Heliothis virescens, in Gossypium hirsutum, 72 h, read-out: Observed % mortality Other ai, other ai alone 0.50 ppm): 50%
mortality at 1 ppm ([1]; Heliothis virescens, in Gossypium hirsutum, 72 h, read-out: Observed % mortality Other ai, other ai alone 1.00 ppm): 46%
Observed % mortality Other ai ([1]; other ai alone 0.50 ppm): 52%
Observed % mortality Other ai ([1]; other ai alone 1.00 ppm): 52%
mortality at 0.125 ppm [2, 4]: 10%
mortality at 0.25 ppm [2, 4]: 4%
mortality at 0.5 ppm [2, 4]: 14%

CCOP(=S)(OCC)Oc1nc(Cl)c(Cl)cc1Cl [Chlorpyrifos, chlorpyrifos]
mortality at 2.5 ppm ([1]; Heliothis virescens, in Gossypium hirsutum, 72 h, read-out: Observed % mortality Other ai, other ai alone 2.50 ppm): 36%
mortality at 5 ppm ([1]; Heliothis virescens, in Gossypium hirsutum, 72 h, read-out: Observed % mortality Other ai, other ai alone 5.00 ppm): 29%
mortality at 10 ppm ([1]; Heliothis virescens, in Gossypium hirsutum, 72 h, read-out: Observed % mortality Other ai, other ai alone 10.00 ppm): 44%

CC1(C)[C@H](C(=O)O[C@H](C#N)c2cccc(Oc3ccccc3)c2)[C@@H]1/C=C(\Cl)C(F)(F)F [Gamma, (S)-α-cyano-3-phenoxybenzyl (Z)-(1R,3R)-3-(2-chloro-3,3,3-trifluoro-1-propenyl)-2,2-dimethylcyclopropanecarboxylate]
mortality at 0.025 ppm [3, 5]: 0%
mortality at 0.05 ppm [3, 5]: 25%
mortality at 0.1 ppm [3, 5]: 90%
Observed % mortality Gamma ([1]; Gamma alone 0.25 ppm): 28%
Observed % mortality Gamma ([1]; Gamma alone 0.50 ppm): 28%
Observed % mortality Gamma ([1]; Gamma alone 1.00 ppm): 28%
mortality at 0.25 ppm ([1]; Heliothis virescens, in Gossypium hirsutum, 72 h, read-out: Observed % mortality Gamma, Gamma alone 0.25 ppm): 32%
mortality at 0.5 ppm ([1]; Heliothis virescens, in Gossypium hirsutum, 72 h, read-out: Observed % mortality Gamma, Gamma alone 0.50 ppm): 32%
mortality at 1 ppm ([1]; Heliothis virescens, in Gossypium hirsutum, 72 h, read-out: Observed % mortality Gamma, Gamma alone 1.00 ppm): 46%
mortality at 0.25 ppm [2, 6]: 70%
mortality at 0.5 ppm [2, 6]: 69%
mortality at 1 ppm [2, 6]: 98%

COC(=O)N(C(=O)N1CO[C@@]2(C(=O)OC)Cc3cc(Cl)ccc3C2=N1)c1ccc(OC(F)(F)F)cc1 [Indoxacarb]
Observed % mortality Other ai ([1]; other ai alone 0.20 ppm): 26% and 22%
Observed % mortality Other ai ([1]; other ai alone 0.80 ppm): 26% and 46%

CN1COCN(Cc2cnc(Cl)s2)/C1=N\[N+](=O)[O-] [Thiamethoxam, thiamethoxam]
mortality at 1.25 ppm [2, 4]: 70%
mortality at 2.5 ppm [2, 4]: 92%
mortality at 5 ppm [2, 4]: 94%

abamectin
Observed % mortality Other ai ([1]; other ai alone 0.25 ppm): 0%
Observed % mortality Other ai ([1]; other ai alone 0.50 ppm): 0%
Observed % mortality Other ai ([1]; other ai alone 1.00 ppm): 0%

emamectin benzoate
Observed % mortality Other ai ([3]; other ai alone 0.0025 ppm): 0%
Observed % mortality Other ai ([3]; other ai alone 0.005 ppm): 6%
Observed % mortality Other ai ([3]; other ai alone 0.01 ppm): 0%
Observed % mortality Other ai ([1]; other ai alone 0.13 ppm): 97% and 96%
Observed % mortality Other ai ([1]; other ai alone 0.25 ppm): 97% and 96% and 99%
Observed % mortality Other ai ([1]; other ai alone 0.50 ppm): 96% and 99%
